Values quoted from earlier work in PMC10723152 (Proceedings of the National Academy of Sciences of the …, 2023).

Test system: cynomolgus macaques
Settings: adult male cynomolgus macaques, 2 Gy sublethal whole-body irradiation

recombinant hGH: recombinant human Growth Hormone, biologic compared from the authors' previous work
hematopoietic recovery: enhanced hematopoietic recovery
